{"source": "patent US20090215895A1", "about": "“Therapeutic and carrier molecules” (PEPLIN BIOLIPIDS PTY LTD, priority 2004, published 2009)", "key": {"[1]": {"test": "LPS-induced influx of neutrophils and mononuclear cells in the peritoneal cavity", "format": "in vivo, BALB/c mice", "conditions": "40 mg/kg intravenously, 6 hr before LPS", "experimental": "FIG. 14 is a representation showing (A) effect of MP3 on in vivo inflammatory response measured as delayed type hypersensitivity (DTH) to sheep erythrocytes and LPS-induced influx of neutrophils and mononuclear cells in the peritoneal cavity in BALB/c mice. In the DTH experiments mice were injected with sheep erythrocytes subcutaneously, challenged with the antigen in the hind foot pad 6 days later and the amount of foot pad swelling measured 48 hr later. One hour prior to challenge mice were given 10 mg/kg body weight of β-oxa fatty acid in 7% w/v, DMSO as vehicle intraperitoneally. […] The data, expressed as % of control, are presented as mean±SEM of 10 and 5 mice for DTH and peritoneal inflammation, respectively. […] The data, expressed as % of control, are presented as mean±SEM of ten mice per group and is representative of two experimental runs. […]\nEffect of MP3 (β-oxa-23:4n-6) on the in vivo inflammatory response was measured as a delayed type hypersensitivity (DTH) reaction and LPS-induced influx of neutrophils and mononuclear cells in the peritoneal cavity in BALB/c mice. For DTH experiments, mice were injected subcutaneously with 100 μl of 10% hematocrit sheep erythrocytes, challenged with the antigen (25 μl of 40%) in the hind foot pad 6 days later and the degree of foot pad swelling measured 48 hr later (Ferrante et al, Clin. & Exp. Immunol. 38:70-76, 1979). […]"}, "ICAM-1": {"tested_on": "ICAM-1", "test": "Adhesion molecule expression on HUVEC (ELISA)", "format": "cell-based, human", "conditions": "for Suppression of TNF-α-induced ICAM-1 expression on HUVEC: 60 min pre-treatment", "experimental": "(§1) FIG. 13 is a representation showing effect of MP3 (β-oxa-23:4n-6) and 20:4n-6 on time-related changes in TNF-α-induced E-selectin, ICAM-1 and VCAM-1 expression on HUVEC. HUVEC were pre-treated with 20 μmol/l β-oxa-23:4n-6 (closed triangles), 20 μmol/l 20:4n-6 (open squares), or DPC (control) for 60 min and then further incubated with TNF-α (125 U/200 μl medium) for up to 24 hr. The expression of E-selectin, ICAM-1 and VCAM-1 adhesion molecules was determined by ELISA. The results are expressed as % of control and represent the mean±SEM of three separate experiments each performed in triplicate. * p<0.05, **p<0.01, ***p<0.001, for significant differences between pre-treatment with fatty acid and corresponding control at a particular time point (one-way analysis of variance followed by the Dunnett test for multiple comparisons). Inset: The effect of β-oxa-23:4n-6 on TNF-α-induced expression of E-selectin mRNA in HUVEC. HUVEC were pre-incubated with β-oxa-23:4n-6 (20 μmol/l) or DPC (control) in 1 ml of medium at 37° C. for 60 min. After the addition of TNF-α, the cells were further incubated at 37° C. for 2 hr. E-selectin mRNA expression was then determined and the results expressed as relative %. Results are the mean±SEM of three separate experiments each performed in quadruplicate. *p<0.0001, for significant differences between pre-treatment with β-oxa-23:4n-6, and control (two-tailed Student's t-test for unpaired data).\n(§2) HUVEC were stimulated with TNF, bacterial lipopolysaccharide (LPS) or PMA for 24 hr. Expression of E-selectin, ICAM-1 and VCAM-1 was determined by an enzyme-linked immunosorbent assay (ELISA) or as mRNA using a slot blot technique (Huang et al 1997 supra)."}, "VCAM-1": {"tested_on": "VCAM-1", "test": "Adhesion molecule expression on HUVEC (ELISA)", "format": "cell-based, human", "conditions": "for Suppression of TNF-α-induced VCAM-1 expression on HUVEC: 60 min pre-treatment", "experimental": "as §1, §2"}, "[2]": {"test": "Tolerability of intravenous MP3", "format": "in vivo, mice", "conditions": "50 mg/kg intravenously, 4 days", "description": "In accordance with the present invention, a novel engineered polyunsaturated fatty acid, β-oxa-23:4n-6 (MP3) (FIG. 5) is identified which has the hall-marks of a new class of pharmaceuticals based on polyunsaturated fatty acids and which can be used to prevent and/or treat cardiovascular disease. […] The focus of this embodiment of the subject invention is, therefore, the efficacy of MP3 at suppressing adhesion molecule expression in vivo and the development of atherosclerosis."}, "E-selectin": {"tested_on": "E-selectin", "test": "Adhesion molecule expression on HUVEC (ELISA, mRNA slot blot)", "format": "cell-based, human", "conditions": "for Suppression of TNF-α-induced E-selectin expression on HUVEC: 60 min pre-treatment", "experimental": "as §1, §2"}, "HUVEC": {"tested_on": "HUVEC", "test": "Agonist-enhanced neutrophil adherence to HUVEC", "format": "cell-based, human", "conditions": "for Inhibition of TNF-α-enhanced neutrophil adhesion to HUVEC: 20 μmol/l, 1 hr pre-treatment, TNF 4 hr", "how_it_was_run": "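HUVEC were pre-treated 60 min at 37° C. with fatty acids (20 μmol/l), stimulated with TNF (125 U/200 μl) for 4 hr, then co-incubated 30 min with neutrophils (5×10^5 cells/well). Adherence expressed as % of control, mean±SEM of three triplicate experiments.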"}, "[3]": {"conditions": "20 μmol/l, listed as β-oxa-23:4n-6"}}, "data": [{"smiles": "CCCCC/C=C\\C/C=C\\C/C=C\\C/C=C\\CCCCOCC(=O)O", "note": "[MP3, β-oxa-23:4n-6]", "values": [{"measurement": "LPS-induced mononuclear cell infiltrate (72 hr)", "setting": "[1]", "result": "inhibition of the mononuclear cell infiltrate after 72 hr"}, {"measurement": "LPS-induced neutrophil influx (24 hr)", "setting": "[1]", "result": "inhibited the neutrophil influx"}, {"measurement": "Suppression of TNF-α-induced ICAM-1 expression on HUVEC", "setting": "ICAM-1; 20 μmol/l", "result": "better than docosahexaenoic acid (22:6n-3) at suppressing"}, {"measurement": "Suppression of TNF-α-induced ICAM-1 expression on HUVEC", "setting": "ICAM-1; [3]", "result": "inhibited the expression"}, {"measurement": "Time of cytokine treatment at maximum inhibition of ICAM-1 expression", "setting": "ICAM-1; 20 μmol/l, TNF-α", "result": 6, "unit": "h"}, {"measurement": "Inhibition of LPS and PMA-induced up-regulation of ICAM-1", "setting": "ICAM-1; HUVEC", "result": "inhibited LPS and PMA-induced, up-regulation"}, {"measurement": "Suppression of TNF-α-induced VCAM-1 expression on HUVEC", "setting": "VCAM-1; 20 μmol/l", "result": "better than docosahexaenoic acid (22:6n-3) at suppressing"}, {"measurement": "Suppression of TNF-α-induced VCAM-1 expression on HUVEC", "setting": "VCAM-1; [3]", "result": "inhibited the expression"}, {"measurement": "Time of cytokine treatment at maximum inhibition of VCAM-1 expression", "setting": "VCAM-1; 20 μmol/l, TNF-α", "result": 12, "unit": "h"}, {"measurement": "Inhibition of LPS and PMA-induced up-regulation of VCAM-1", "setting": "VCAM-1; HUVEC", "result": "inhibited LPS and PMA-induced, up-regulation"}, {"measurement": "Observable signs of distress", "setting": "[2]", "result": "did not cause any observable signs of distress"}, {"measurement": "TNF-α-induced expression of E-selectin mRNA", "setting": "E-selectin; 20 μmol/l, 60 min, TNF-α 2 hr", "result": "substantially depressed"}, {"measurement": "Suppression of TNF-α-induced E-selectin expression on HUVEC", "setting": "E-selectin; 20 μmol/l", "result": "better than docosahexaenoic acid (22:6n-3) at suppressing"}, {"measurement": "Suppression of TNF-α-induced E-selectin expression on HUVEC", "setting": "E-selectin; [3]", "result": "inhibited the expression"}, {"measurement": "Time of cytokine treatment at maximum inhibition of E-selectin expression", "setting": "E-selectin; 20 μmol/l, TNF-α", "result": 4, "unit": "h"}, {"measurement": "Inhibition of LPS and PMA-induced up-regulation of E-selectin", "setting": "E-selectin; HUVEC", "result": "inhibited LPS and PMA-induced, up-regulation"}, {"measurement": "Inhibition of LPS- or PMA-induced neutrophil adhesion to HUVEC", "setting": "HUVEC", "result": "inhibited the increase in neutrophil adhesion"}, {"measurement": "Inhibition of TNF-α-enhanced neutrophil adhesion to HUVEC", "setting": "HUVEC", "result": "greatest suppression"}, {"measurement": "Inhibition of TNF-α-enhanced neutrophil adhesion to HUVEC", "setting": "HUVEC; listed as β-oxa 23:4n-6", "result": "most active"}, {"measurement": "Inhibition of TNF-α-enhanced neutrophil adhesion to HUVEC", "setting": "HUVEC; listed as β-oxa-23:4n-6", "result": "inhibited their ability to be stimulated"}, {"measurement": "Concentration with significant suppression of TNF-α-induced neutrophil adhesion", "setting": "HUVEC; pre-treatment time of 1 hr", "result": "≥ 5", "unit": "µmol/L"}]}]}
